# Where a name gives a salt, the structure may show the parent alone. Read-outs that look alike come from different tables or passages of the source.
# How the values were obtained:
# Assay in all cases: In vitro antibacterial activity (MIC)
# Type in all cases: cell-based
# S. pneumoniae 6301 = settings: Streptococcus pneumoniae, 6301, S. pneumoniae 6301; read-out: MIC
# Procedure, shortened: (§1)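 Read-out: visible growth, checked with a viewer after overnight incubation at 37° C. Bacteria, from a 10^-2 dilution of an overnight culture, were exposed to drug at 128 to 0.008 μg/ml in Mueller-Hinton broth.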
# C. freundii CDC6 = settings: Citrobacter freundii, CDC6, C. freundii CDC6; read-out: MIC
# Procedure, shortened: as §1
# E. coli 5152 = system: E. coli 5152
# Procedure, shortened: as §1
# S. marcescens S1 = settings: Serratia marcescens, S1, S. marcescens S1; read-out: MIC
# Procedure, shortened: as §1
# K. pneumoniae 5096 = settings: Klebsiella pneumoniae; K. pneumoniae 5096; read-out: MIC
# Procedure, shortened: as §1
# P. aeruginosa 503-820 = settings: Pseudomonas aeruginosa, 503820; P. aeruginosa 503-820; read-out: MIC
# Procedure, shortened: as §1
# E. cloacae 24 = settings: Enterobacter cloacae, 24, E. cloacae 24; read-out: MIC
# Procedure, shortened: as §1
# P. aeruginosa 6148B = settings: Pseudomonas aeruginosa, read-out: MIC
# Procedure, shortened: as §1
# P. aeruginosa POW 151 = settings: Pseudomonas aeruginosa, POW151
# Procedure, shortened: as §1
# E. aerogenes 503-478 = settings: Klebsiella aerogenes, 503478, E. aerogenes 503-478; read-out: MIC
# Procedure, shortened: as §1
# S. marcescens S5 = settings: Serratia marcescens, S5, S. marcescens S5; read-out: MIC
# Procedure, shortened: as §1
# E. coli R-563 = settings: Escherichia coli, R563, E. coli R-563; read-out: MIC
# Procedure, shortened: as §1
# E. coli 503-455 = system: E. coli 503-455
# Procedure, shortened: as §1
# K. pneumoniae A = settings: Klebsiella pneumoniae
# Procedure, shortened: as §1
# S. aureus 1059B = settings: Staphylococcus aureus, read-out: MIC
# Procedure, shortened: as §1
# P. mirabilis 2 = settings: Proteus mirabilis, 2, P. mirabilis 2; read-out: MIC
# Procedure, shortened: as §1
# P. vulgaris 101 = settings: Proteus vulgaris, 101, P. vulgaris 101; read-out: MIC
# Procedure, shortened: as §1
# S. schottmuelleri = settings: read-out: MIC
# Procedure, shortened: as §1
# P. mirabilis 503-1136 = settings: Proteus mirabilis, 5031136, P. mirabilis 503-1136; read-out: MIC
# Procedure, shortened: as §1
# E. cloacae P99 = settings: Enterobacter cloacae, P99, E. cloacae P99
# Procedure, shortened: as §1
# C. freundii 8ASM = settings: Citrobacter freundii, 8ASM
# Procedure, shortened: as §1
# E. cloacae 214 = settings: Enterobacter cloacae, 214, E. cloacae 214; read-out: MIC
# Procedure, shortened: as §1
# P. vulgaris 100 = settings: Proteus vulgaris
# Procedure, shortened: as §1
# P. vulgaris ATCC 6380 = settings: Proteus vulgaris, ATCC6380, P. vulgaris ATCC 6380; read-out: MIC
# Procedure, shortened: as §1
# C. diversus CDC 1663-72 = settings: Citrobacter koseri, CDC166372
# Procedure, shortened: as §1
# E. coli 48 = settings: Escherichia coli, 48, E. coli 48; read-out: MIC
# Procedure, shortened: as §1
# K. pneumoniae 4964 = system: K. pneumoniae 4964
# Procedure, shortened: as §1
# P. aeruginosa 503-56 = settings: Pseudomonas aeruginosa, 50356, P. aeruginosa 503-56; read-out: MIC
# Procedure, shortened: as §1
# E. cloacae 6951 = system: E. cloacae 6951
# Procedure, shortened: as §1
# S. marcescens S4 = settings: Serratia marcescens, S4, S. marcescens S4; read-out: MIC
# Procedure, shortened: as §1
# P. aeruginosa 8780 = settings: Pseudomonas aeruginosa; P. aeruginosa 8780; read-out: MIC
# Procedure, shortened: as §1
# S. pneumoniae 6302 = settings: Streptococcus pneumoniae, 6302, S. pneumoniae 6302; read-out: MIC
# Procedure, shortened: as §1
# K. pneumoniae 503-994 = settings: Klebsiella pneumoniae, 503994, K. pneumoniae 503-994; read-out: MIC
# Procedure, shortened: as §1
# P. mirabilis 620A = settings: Proteus mirabilis, 620A, P. mirabilis 620A; read-out: MIC
# Procedure, shortened: as §1
# E. cloacae 9570A = settings: Enterobacter cloacae, read-out: MIC
# Procedure, shortened: as §1
# E. coli 4 = settings: Escherichia coli, 4, E. coli 4; read-out: MIC
# Procedure, shortened: as §1
# E. aerogenes 8 = system: E. aerogenes 8
# Procedure, shortened: as §1
# E. cloacae 5699 = settings: Enterobacter cloacae, 5699, E. cloacae 5699; read-out: MIC
# Procedure, shortened: as §1
# S. pyogenes 503-782 = settings: Streptococcus pyogenes, 503782; S. pyogenes 503-782; read-out: MIC
# Procedure, shortened: as §1
# P. aeruginosa 5712 = settings: Pseudomonas aeruginosa; P. aeruginosa 5712; read-out: MIC
# Procedure, shortened: as §1
# S. marcescens S2 = settings: Serratia marcescens; S. marcescens S2; read-out: MIC
# Procedure, shortened: as §1
# S. pneumoniae SC = settings: Streptococcus pneumoniae, read-out: MIC
# Procedure, shortened: as §1
# S. aureus Smith = settings: Staphylococcus aureus, S. aureus Smith; read-out: MIC
# Procedure, shortened: as §1
# P. mirabilis 90 = settings: Proteus mirabilis, 90, P. mirabilis 90; read-out: MIC
# Procedure, shortened: as §1
smiles,measurement,setting,value
"CCc1nc(C)cn1CCCC1CCN(C=N[C@@H]2C(=O)N3[C@@H]2SC(C)(C)[C@@H]3C(=O)O)CC1 [G, [2S-(2alpha,5alpha,6beta)]-6-[[[4-[3-(2-ethyl-4methyl-1H-imidazol-1-yl)propyl]piperidinyl]methylene]amino]-3,3-dimethyl-7-oxo-4-thia-1-azabicyclo[3.2.0]heptane-2-carboxylic acid hydrochloride]",MIC,S. pneumoniae 6301,1 µg/mL
same,MIC,C. freundii CDC6,0.25 µg/mL
same,MIC,"E. coli 5152; Escherichia coli, 5152",16 µg/mL
same,MIC,S. marcescens S1,1 µg/mL
same,MIC,K. pneumoniae 5096,128 µg/mL
same,MIC,P. aeruginosa 503-820,> 128 µg/mL
same,MIC,E. cloacae 24,0.5 µg/mL
same,MIC,P. aeruginosa 6148B,> 128 µg/mL
same,MIC,P. aeruginosa POW 151,> 128 µg/mL
same,MIC,E. aerogenes 503-478,8 µg/mL
same,MIC,S. marcescens S5,2 µg/mL
same,MIC,E. coli R-563,0.25 µg/mL
same,MIC,"E. coli 503-455; Escherichia coli, 503455, E. coli 503-455, read-out: MIC",4 µg/mL
same,MIC,K. pneumoniae A,0.125 µg/mL
same,MIC,S. aureus 1059B,128 µg/mL
same,MIC,P. mirabilis 2,1 µg/mL
same,MIC,P. vulgaris 101,16 µg/mL
same,MIC,S. schottmuelleri,0.125 µg/mL
same,MIC,P. mirabilis 503-1136,16 µg/mL
same,MIC,E. cloacae P99,0.5 µg/mL
same,MIC,C. freundii 8ASM,0.125 µg/mL
same,MIC,E. cloacae 214,0.25 µg/mL
same,MIC,P. vulgaris 100; 100,32 µg/mL
same,MIC,P. vulgaris ATCC 6380,0.25 µg/mL
same,MIC,C. diversus CDC 1663-72,0.125 µg/mL
same,MIC,E. coli 48,0.062 µg/mL
same,MIC,"K. pneumoniae 4964; Klebsiella pneumoniae, 4964",2 µg/mL
same,MIC,P. aeruginosa 503-56,> 128 µg/mL
same,MIC,"E. cloacae 6951; Enterobacter cloacae, 6951, E. cloacae 6951, read-out: MIC",16 µg/mL
same,MIC,S. marcescens S4,2 µg/mL
same,MIC,P. aeruginosa 8780,> 128 µg/mL
same,MIC,S. pneumoniae 6302,2 µg/mL
same,MIC,K. pneumoniae 503-994,0.25 µg/mL
same,MIC,P. mirabilis 620A,64 µg/mL
same,MIC,E. cloacae 9570A,0.5 µg/mL
same,MIC,E. coli 4,0.25 µg/mL
same,MIC,"E. aerogenes 8; Klebsiella aerogenes, E. aerogenes 8, read-out: MIC",16 µg/mL
same,MIC,E. cloacae 5699,0.5 µg/mL
same,MIC,S. pyogenes 503-782,128 µg/mL
same,MIC,P. aeruginosa 5712,> 128 µg/mL
same,MIC,S. marcescens S2,1 µg/mL
same,MIC,S. pneumoniae SC,1 µg/mL
same,MIC,S. aureus Smith,8 µg/mL
same,MIC,P. mirabilis 90,1 µg/mL
"CC1(C)S[C@@H]2[C@H](N=CN3CCC(Cn4ccnc4N)CC3)C(=O)N2[C@H]1C(=O)O [H, [2S-(2alpha,5alpha,6beta)]-6-[[[4-[(2-amino-1H-imidazol-1-yl)methyl-1-piperidinyl]methylene]amino]-3,3-dimethyl-7-oxo-4-thia-1-azabicyclo[3.2.0]heptane-2-carboxylic acid hydrochloride]",MIC,S. pneumoniae 6301,1 µg/mL
same,MIC,C. freundii CDC6,0.062 µg/mL
same,MIC,"E. coli 5152; Escherichia coli, 5152, E. coli 5152, read-out: MIC",8 µg/mL
same,MIC,S. marcescens S1,0.125 µg/mL
same,MIC,K. pneumoniae 5096,64 µg/mL
same,MIC,P. aeruginosa 503-820,64 µg/mL
same,MIC,E. cloacae 24,0.25 µg/mL
same,MIC,P. aeruginosa 6148B,64 µg/mL
same,MIC,P. aeruginosa POW 151,> 128 µg/mL
same,MIC,E. aerogenes 503-478,8 µg/mL
same,MIC,S. marcescens S5,0.5 µg/mL
same,MIC,E. coli R-563,0.062 µg/mL
same,MIC,"E. coli 503-455; Escherichia coli, 503455",1 µg/mL
same,MIC,"K. pneumoniae A; K. pneumoniae A, read-out: MIC",0.031 µg/mL
same,MIC,S. aureus 1059B,128 µg/mL
same,MIC,P. mirabilis 2,0.25 µg/mL
same,MIC,P. vulgaris 101,8 µg/mL
same,MIC,S. schottmuelleri,0.062 µg/mL
same,MIC,P. mirabilis 503-1136,4 µg/mL
same,MIC,E. cloacae P99,0.062 µg/mL
same,MIC,"C. freundii 8ASM; C. freundii 8ASM, read-out: MIC",0.031 µg/mL
same,MIC,E. cloacae 214,0.125 µg/mL
same,MIC,"P. vulgaris 100; P. vulgaris 100, read-out: MIC",4 µg/mL
same,MIC,P. vulgaris ATCC 6380,0.062 µg/mL
same,MIC,"C. diversus CDC 1663-72; C. diversus CDC 1663-72, read-out: MIC",0.062 µg/mL
same,MIC,E. coli 48,0.062 µg/mL
same,MIC,"K. pneumoniae 4964; Klebsiella pneumoniae, 4964, K. pneumoniae 4964, read-out: MIC",64 µg/mL
same,MIC,P. aeruginosa 503-56,32 µg/mL
same,MIC,"E. cloacae 6951; Enterobacter cloacae, 6951",4 µg/mL
same,MIC,S. marcescens S4,0.5 µg/mL
same,MIC,P. aeruginosa 8780,> 128 µg/mL
same,MIC,S. pneumoniae 6302,1 µg/mL
same,MIC,K. pneumoniae 503-994,0.125 µg/mL
same,MIC,P. mirabilis 620A,16 µg/mL
same,MIC,E. cloacae 9570A,0.25 µg/mL
same,MIC,E. coli 4,0.062 µg/mL
same,MIC,"E. aerogenes 8; Klebsiella aerogenes, 8, E. aerogenes 8",32 µg/mL
same,MIC,E. cloacae 5699,0.25 µg/mL
same,MIC,S. pyogenes 503-782,64 µg/mL
same,MIC,P. aeruginosa 5712,128 µg/mL
same,MIC,S. marcescens S2,0.062 µg/mL
same,MIC,S. pneumoniae SC,1 µg/mL
same,MIC,S. aureus Smith,8 µg/mL
same,MIC,P. mirabilis 90,0.125 µg/mL
